Reference: patent US10973776B1, “Loteprednol etabonate nanoparticles in thermoreversible gels for enhanced therapeutics” (University of South Florida, priority 2015, dated 2021)
“Also recorded” adds a separate entry of the source.

Legend:
Type in all cases: cell-based, Human
[1] = system: VEGF secretion in ARPE-19 cells; assay: VEGF secretion ELISA, TA formulations; settings: 10 μM, 72 h
Procedure: Human retinal pigment epithelium, ARPE-19, cells (ATCC # CRL-2302) were grown in 1:1 Dulbecco's Modified Eagle's Medium and Ham's F12 Medium (Mediated, Inc., Manassas, Va.) with 10% fetal bovine serum and 100 Um′ penicillin/streptomycin (Sigma Aldrich, St. Louis, Mo.). The cultures were maintained in a humid environment at 5% CO2 and 37° C. ARPE-19 cells were seeded onto 24-well plates at 5×10^4 cells/ml and allowed to grow until confluence. On the day of study, cell culture media were replaced with 1% FBS experimental media and allowed to remain in quiescence for 12 h. The cellular monolayers were incubated with varying treatment concentrations of free TA solution (1, 10 and 100 μM), TA NPs (10 and 100 μM) and TA NP-TR gel (10 and 100 μM). Culture media were collected at 12 and 72 h. Secreted VEGF in collected culture media was quantified by the ELISA method (Human VEGFA ELISA kit, Thermo Scientific, Waltham, Mass.). The cell protein content was assayed using the BCA protein assay kit after lysing the cells, and VEGF secretion was normalized to total protein. Samples were read using the Synergy H4 plate reader (Biotek Industries, Inc., Winooski, Vt.) with absorbance at 450 nm minus absorbance at 550 nm.

[2] = system: ARPE-19 cells; assay: MTT cytotoxicity assay of TA DDS; settings: 10 μM, 24 h
Procedure: Human retinal pigment epithelium, ARPE-19, cells (ATCC # CRL-2302) were grown in 1:1 Dulbecco's Modified Eagle's Medium and Ham's F12 Medium (Mediated, Inc., Manassas, Va.) with 10% fetal bovine serum and 100 Um′ penicillin/streptomycin (Sigma Aldrich, St. Louis, Mo.). The cultures were maintained in a humid environment at 5% CO2 and 37° C.
The cytotoxicity of the DDS was assessed in ARPE-19 cells by the 3-(4,5-dimethylthiazol-2-yl)-2,5-diphenyltetrazolium bromide salt (MTT) assay. Briefly, cells were seeded in 24-well plates at a density of 5×10^4 cells/ml for 24 h to achieve confluency before treatment. Cells were exposed to free TA, TA NPs, and TA NP-TR gel at varying concentrations (0, 1, 10, 100 μM) for 24 h after which the MTT assay was performed. Cell culture media were aspirated, and […] of MTT reagent solution (1 mg/ml) was added to each well. Cells were incubated at 37° C. and 5% CO2 for 4 h, after which the MTT reagent solution was aspirated and 1 mL of DMSO was added to each well. Plates were allowed to shake gently for 10 min before being read by Synergy H4 plate reader (Biotek Industries, Inc., Winooski, Vt.) at absorbance of 570 nm.

[3] = system: ARPE-19 cells; assay: MTT cytotoxicity assay of LE DDS; settings: 1, 10, 100 μM, 24 hours
Procedure: (§1) Human retinal pigment epithelium, ARPE-19, cells (ATCC # CRL-2302) were grown in 1:1 Dulbecco's Modified Eagle's Medium and Ham's F12 Medium (Mediatech, Inc., Manassas, Va.) with 10% fetal bovine serum and 100 U/mL penicillin/streptomycin (Sigma Aldrich, St. Louis, Mo.). The cultures were maintained in a humid environment at 5% CO2 and 37° C.
Cytotoxicity was assessed in ARPE-19 cells by the 3-(4,5-dimethylthiazol-2-yl)-2,5-diphenyltetrazolium bromide salt (MTT) assay. Briefly, cells were seeded in 24-well plates at a density of 5×10^4 cells/mL for 24 hours to achieve confluence before treatment. Cells were exposed to free LE solution, LE NPs, and LE NPs-TR gel at varying concentrations (0, 1, 10, 100 μM) for 24 hours after which the MTT assay was performed. Cell culture media were aspirated and 300 μL of MTT reagent solution (1 mg/mL) was added to each well. Cells were incubated at 37° C. and 5% CO2 for 4 hours, after which the MTT reagent solution was aspirated and 500 μL of DMSO was added to each well. Plates were allowed to shake gently for 10 minutes before being read by Synergy H4 plate reader (Biotek Industries, Inc., Winooski, Vt.) at absorbance of 570 nm.

[4] = system: VEGF secretion in ARPE-19 cells; assay: VEGF secretion ELISA, LE formulations
Procedure: as §1
ARPE-19 cells were seeded onto 24-well plates at 5×10^4 cells/mL and allowed to grow until confluence. On the day of study, cell culture media were replaced with 1% FBS experimental media and allowed to remain in quiescence for 12 hours. The cellular monolayers were incubated with varying treatment concentrations of free LE solution (1, 10 μM), LE NPs (10 μM), and LE NPs-TR gel (10 μM). Culture media were collected at 12 and 72 hours. Secreted VEGF in collected culture media was quantified by the ELISA method (Human VEGFA ELISA kit, Thermo Scientific, Waltham, Mass.). The cell protein content was assayed using the BCA protein assay kit after lysing the cells and VEGF secretion was normalized to total protein. Samples were read by using the Synergy H4 plate reader (Biotek Industries, Inc., Winooski, Vt.) with absorbance at 450 nm minus absorbance at 550 nm.

Compound	suppression of VEGF expression [1]	MTT cytotoxicity vs untreated control cells [2]	MTT cytotoxicity vs untreated control cells [3]	MTT cytotoxicity vs untreated control cells ([3]; listed as free LE solution)	suppression of VEGF expression vs media control ([4]; 1 μM, 12 hours)	suppression of VEGF secretion vs control ([4]; 10 μM, 12 hours)	reduction of VEGF expression compared to control ([4]; within 12 hours, p<0.05, concentration not stated)
CC1(C)O[C@@H]2C[C@H]3[C@@H]4CCC5=CC(=O)C=C[C@]5(C)[C@@]4(F)[C@@H](O)C[C@]3(C)[C@]2(C(=O)CO)O1 [free TA, Triamcinolone acetonide]	no significant effect	induced significant cell death; also recorded: cytotoxic					
CCOC(=O)O[C@]1(C(=O)OCCl)CC[C@H]2[C@@H]3CCC4=CC(=O)C=C[C@]4(C)[C@H]3[C@@H](O)C[C@@]21C [free LE, Loteprednol etabonate]			no impact on cell viability	no cytotoxicity	showed reduction in VEGF expression	showed reduction in VEGF expression	significantly reduced VEGF expression
